One series has as its system Ido1. In words: CRISPR/Cas9-mediated Ido1 targeting of primary murine MLL/AF9 cells. It is filed as cell-based, mouse. The following applies: Ido1 exon 3.
Series [1] has as its system Saa3 expression in mouse primary osteoblasts. In words: Saa3 mRNA in primary differentiated mouse calvaria osteoblasts. In kind it is cell-based. The following applies: 25 nmol/L, 24 hours.
In the next series the target is 5-HT1B receptor (HTR1B) (Homo sapiens, UniProt P28222). In words: GloSensor Gi/o-mediated cAMP inhibition assay in transfected HEK293T cells. In kind it is cell-based.
The subject of series [2] is leukemic blasts (hCD45+ hCD33+). The experiment in a line: Kyn injection in low AML burden PDX mice. The following applies: Kyn 20mg/kg for 1 week. In kind it is in vivo, NSGS mice.
Series [3] relates to patient-derived AML cells. The experiment in a line: PDX in NSG mice, combination therapy. It is filed as in vivo. The note with it: day 22 after initiating therapy.
Series [4] is described as follows: Systemic toxicity of epacadostat diet in WT mice. It is filed as in vivo, mouse. The following applies: epacadostat ad libitum diet 0.8 g/kg.
Series [5] relates to Kyn/Trp ratio (indicator of IDO1 activity). In words: Serum Kyn and Trp levels. It is filed as in vivo, mouse.
For series [6], the system named is patient-derived AML cells. The experiment in a line: Patient-derived AML xenograft. It is filed as in vivo, NSGS mice. The following applies: epacadostat 300 mg/kg daily gavage. On the technique in general: A xenograft is tissue or cells of one species grown in another, often human tumour cells in immunodeficient mice.
The next series has as its system MLL/AF9 AML cells. It is filed as in vivo, mouse.
The target in the next series is murine HTR1B receptor (Mus musculus, UniProt P28334). The experiment in a line: [3H]-Kyn binding competition, Htr1b-overexpressing HEK293T membranes. The note with it: SB9 at ∼90 μmol/L, equal to the concentration administered in vivo.
The test system of series [7] is Cyclins D1, D2, and E1 (targets of serotonin-HTR1B signaling). The experiment in a line: Bone. It is filed as in vivo, mouse. The following applies: SB9-treated mice.
Another series deals with mouse HTR1B (Mus musculus, UniProt P28334). The note with it: Fig. S1M.
Series [8] has as its system Ido1 expression in WEHI-3B cells. The experiment in a line: Ido1 mRNA in WEHI-3B cells exposed to recombinant SAA. In kind it is cell-based, mouse. The note with it: exposed overnight.
The next series relates to WEHI-3B cells. In words: Proliferation of mouse AML cell line exposed to SAA3. It is filed as cell-based. The following applies: SAA3 1 μg/mL, 24–72 hours, versus vehicle.
Series [9] concerns leukemic blasts (hCD45+CD33+). It is filed as in vivo, NSGS mice.
The subject of series [10] is IDO1 expression in OCI-AML3 cells. In words: IDO1 mRNA in human AML/MDS cell lines exposed to recombinant proteins. In kind it is cell-based.
The test system of series [11] is total human BM cells isolated from PDX mice. The experiment in a line: Ex vivo human BM cells isolated from PDX mice. It is filed as cell-based. The following applies: SAA1 1 μg/mL, 24 hours.
The next series relates to THP-1 and OCI-AML3 cells. The experiment in a line: Proliferation of human AML cell lines exposed to SAA1. In kind it is cell-based. The following applies: SAA1 1 μg/mL, 24–72 hours, versus vehicle.
Series [12] relates to AHR target genes (CYP1A1, CYP1A2). In words: AHR target gene mRNA in human AML and MDS cells exposed to SAA1. It is filed as cell-based. The note with it: SAA1 1µg/ml o/n.
Series [13] has as its system lineage-depleted AML and MDS BM-MNCs. It is filed as cell-based, human. The note with it: SAA1 5 μg/mL, 24 hours.
Where [14] appears, read: SAA1 i.v., 2- and 8-day treatments.

We go through eight molecules from article PMC8983599 (Cancer Discovery, 2022).

Read-outs that look alike come from different tables or passages of the source.

Chain of 5-HT1B receptor (HTR1B) (P28222 whole entry): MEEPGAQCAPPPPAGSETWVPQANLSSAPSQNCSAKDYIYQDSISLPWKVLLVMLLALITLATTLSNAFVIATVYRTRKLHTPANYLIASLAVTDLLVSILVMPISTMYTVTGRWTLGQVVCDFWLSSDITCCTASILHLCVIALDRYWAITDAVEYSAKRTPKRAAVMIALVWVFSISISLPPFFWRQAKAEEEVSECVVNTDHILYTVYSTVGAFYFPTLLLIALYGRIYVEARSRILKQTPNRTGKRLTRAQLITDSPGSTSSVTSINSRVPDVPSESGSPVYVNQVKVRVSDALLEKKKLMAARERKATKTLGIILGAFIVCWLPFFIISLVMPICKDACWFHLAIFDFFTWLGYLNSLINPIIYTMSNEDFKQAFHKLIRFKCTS
Chain of murine HTR1B receptor (P28334 whole entry): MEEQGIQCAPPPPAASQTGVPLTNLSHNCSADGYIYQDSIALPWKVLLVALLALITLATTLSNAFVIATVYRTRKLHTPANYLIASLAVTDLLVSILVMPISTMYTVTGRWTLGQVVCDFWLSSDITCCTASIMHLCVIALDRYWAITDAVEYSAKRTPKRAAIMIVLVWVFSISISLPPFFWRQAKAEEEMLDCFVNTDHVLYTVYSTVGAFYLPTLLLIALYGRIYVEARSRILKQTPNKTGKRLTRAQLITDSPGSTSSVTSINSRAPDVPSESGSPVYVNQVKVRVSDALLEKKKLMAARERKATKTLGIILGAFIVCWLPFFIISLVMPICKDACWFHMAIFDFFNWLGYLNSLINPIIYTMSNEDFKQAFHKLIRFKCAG
Chain of mouse HTR1B (P28334 whole entry): as above

For “sgRNA#196: chemically modified mouse sgRNA targeting Ido1 exon 3: CUGCCCACACUGAGCACGGA (chemically modified, pattern not given here)”, the deletion efficiency in the series on Ido1 is recorded as roughly 40%.

As to `NCCc1c[nH]c2ccc(O)cc12` [5-HT, 5-hydroxytryptamine, reference compound], the “Saa3 expression in mouse osteoblasts (Htr1b+/+)” value in series [1] is “had no effect”.

By EC50 is commonly meant the concentration that produces a half-maximal response. A high value points to a need for much substance. Turning to `Nc1ccccc1C(=O)CC(N)C(=O)O` (stereo not drawn) [Kyn, kynurenine], the “mode of action on Gi/o-mediated cAMP production through HTR1B” value on 5-HT1B receptor (HTR1B) is reported as “partial agonist”. This molecule also gave a half-maximal effective concentration (EC50) at 5-HT1B receptor (HTR1B) (EC50 (nmol/L), cAMP Gi agonist, human HTR1B) of roughly 772 nM. Further, in series [1], the “Saa3 expression in Htr1b−/− primary osteoblasts” value is listed as “failed to upregulate Saa3 expression” and the “Saa3 expression in mouse osteoblasts (Htr1b+/+)” value is “potently upregulated Saa3 expression”. Besides, in series [2], the “AML burden in BM and SP” value was “AML burden increased in BM and SP”; the “proliferative capacity of the leukemic blasts” value is listed as “increases”. In addition, the “serum SAA3” value in series [2] (low AML burden PDX mice) was “increases serum SAA3”.

As for `Nc1ccn([C@@H]2O[C@H](CO)[C@@H](O)[C@@H]2O)c(=O)n1` [Ara-C, 1-β-D-arabinofuranosylcytosine], the “effect on leukemic burden in SP relative to BM” value in series [3] is “more sustained in the SP than in BM”.

For `NS(=O)(=O)NCCNc1nonc1C(=NO)Nc1ccc(F)c(Br)c1` [epacadostat], the systemic toxicity result in series [4] was “did not show any obvious systemic toxicity”. Moreover, the “reduction in serum Kyn levels” value in [5] (MLL/AF9 mice, epacadostat diet 1.6 g/kg) was 35%. Further, the “reduction in basal (no leukemia) circulating Kyn/Trp levels” value in series [5] (WT mice, epacadostat ad libitum diet 0.8 g/kg) was found to be 54%. For the same molecule, the “systemic Kyn/Trp levels in MLL/AF9 leukemic mice” value in series [5] (epacadostat diet 0.8 g/kg) is recorded as “did not reduce the 1.5-fold increase in systemic Kyn/Trp levels”. Besides, the “effect on leukemic burden in SP relative to BM” value in series [3] is listed as “more pronounced effect in the SP”. In [6], the “G0–G1 and G2–M populations of leukemic blasts” value is on record as “remained unchanged”; the leukemic blast apoptosis result is given as “increased leukemic blast apoptosis”; the “proliferation of leukemic blasts (hCD45+CD33+), in vivo cell cycle” value is given as “less proliferative”. Also, the “reduction in Kyn/Trp levels in blood” value in series [6] (12-day regimen) is roughly 20%. Besides, the “reduction in AML BM burden” value in [6] (versus vehicle) is listed as roughly 20%. In the series with MLL/AF9 AML cells (epacadostat diet 0.8 g/kg), the leukemia progression entry is “tendency toward a slower leukemia progression” and the survival result is given as “slight—yet significant—increase in survival”. Further, the AML burden result with MLL/AF9 AML cells (epacadostat diet 1.6 g/kg) is given as “significant delay in AML burden”. Moreover, in the series with MLL/AF9 AML cells (epacadostat diet 1.6 g/kg, compared with the lower dose), the survival result is given as “significantly prolonged survival”.

Take `Cc1nc(-c2ccc(-c3ccc(C(=O)N4CCc5cc6c(cc54)C4(CCN(C)CC4)CO6)cc3)c(C)c2)no1` [SB224289, 1′-methyl-5-[[2′-methyl-4“-(5-methyl-1,2,4-oxadiazol-3-yl)biphenyl-4-yl]carbonyl]-2,3,6,7-tetrahydro-spiro[furo[2,3-f]indole-3,4-”piperidine]]: the “effect on Kyn binding to the murine HTR1B receptor” value at murine HTR1B receptor is listed as “no effect”. Besides, the “protection of MLL/AF9-injected mice” value in the series with MLL/AF9 AML cells (SB9 5 mg/kg i.p. daily from 1 week after leukemia injection) is recorded as “only partially protected”. In addition, the survival entry in the series on MLL/AF9 AML cells (SB9 5 mg/kg i.p. daily versus vehicle) is “significant increase in survival”. Further, the “bone expression of Cyclins D1, D2, and E1” value in series [7] is “upregulated”. For the same molecule, at mouse HTR1B, the “5-HT binding to HTR1B at the administered dose” value was “effective in abolishing 5-HT binding to HTR1B”.

B1: SAA3: recombinant mouse SAA3 (Cusabio), murine ortholog of SAA1 (protein, UniProt P04918 19-122, looked up)
Serum amyloid A-3 protein: QRWVQFMKEAGQGSRDMWRAYSDMKKANWKNSDKYFHARGNYDAARRGPGGAWAAKVISDAREAVQKFTGHGAEDSRADQFANEWGRSGKDPNHFRPAGLPKRY
With B1, in [8], the “Ido1 expression in WEHI-3B cells” value is “upregulated Ido1 expression”. Further, the “proliferation of mouse AML cell line” value in the series with WEHI-3B cells is recorded as “increased proliferation”.

B2: SAA1: recombinant human acute-phase protein serum amyloid A1 (PeproTech) (protein, UniProt P0DJI8 19-122, looked up)
Serum amyloid A-1 protein: RSFFSFLGEAFDGARDMWRAYSDMREANYIGSDKYFHARGNYDAAKRGPGGAWAAEVITDARENIQRFFGHGAEDSLADQAANEWGRSGKDPNHFRPAGLPEKY
Take B2: in series [9] (SAA1 100 μg/kg i.v., 2- and 8-day treatments), the “proliferative rate of leukemic blasts (EdU+ cells, S-phase)” value was “maintained and prominent increase in the proliferative rate of leukemic blasts”. In addition, in [9] (setting [14]), the “G0–G1 cells of leukemic blasts” value is on record as “decrease” and the “G2–M phase of leukemic blasts” value is given as “unvarying”. In addition, the “increase in AML burden in the BM” value in series [9] (SAA1 i.v., completion of the 8-day treatment) stood at 1.5 fold. The “Ido1 expression in WEHI-3B cells” value in series [8] is reported as “able to upregulate Ido1 expression in WEHI-3B cells with a magnitude similar to SAA3”. For the same molecule, the “IDO1 upregulation in other cell lines” value in series [10] (Fig. S4O, exposed o/n to SAA1) is “observed across several human AML cell lines as well as the MDS-L cell line”. Further, the “IDO1 expression in OCI-AML3 cells” value in [10] (overnight, 50 ng/mL recombinant protein) was “the only osteoblast-secreted molecule able to upregulate IDO1 expression”. In addition, in series [11], the “IDO1 expression in PDX-isolated human cells” value is “upregulated only in response to SAA1 in the PDX AML-isolated human cells” and the “proliferation of human cells from CD34+ healthy injected mice” value is “unresponsive”. In addition, the “proliferation of patient-derived cells from AML-injected mice” value in series [11] (versus vehicle) is listed as “high proliferative activity”. The “proliferation of human AML cell lines” value with THP-1 and OCI-AML3 cells is “increased proliferation”. Also, in series [12], the “AHR target gene expression in human AML and MDS cell lines” value is “upregulated most of the main AHR target genes”. Further, in series [13], the “IDO1 mRNA levels in patient-derived BM-MNCs” value was “increased”; the “proliferation of lineage-depleted AML and MDS BM-MNCs from patient aspirates” value was “promoted proliferation”.
